Experimental data: patent US20230365488A1, “TRUXILLIC ACID MONOESTER-DERIVATIVES AS SELECTIVE FABP5 INHIBITORS AND PHARMACEUTICAL COMPOSITIONS AND USES THEREOF” (The Research Foundation for The State University of New York, priority 2020, published 2023)

How the values were obtained:
[1] = test system: PC-3 (human metastatic prostate cancer) cells; experiment: Cytotoxicity (MTT) assay, PC-3 (Example 5); format: cell-based; conditions: 72-hour incubation, 1% FBS, read-out: PC3 IC50
FABP5 = FABP5 (Homo sapiens (Human), UniProt Q01469); experiment: FABP5 fluorescent probe displacement binding assay; conditions: for Ki: average ± S.E. of at least three independent experiments; for FABP3 Ki/FABP5 Ki: selectivity ratio FABP3 over FABP5
[2] = test system: WI-38 (human normal lung fibroblast) cells; experiment: Cytotoxicity (MTT) assay, WI-38 (Example 5); format: cell-based; conditions: 72-hour incubation, 1% FBS
[3] = test system: HepG2 (human liver cancer) cells; experiment: Cytotoxicity (MTT) assay, HepG2 (Example 5); format: cell-based; conditions: 72-hour incubation, 1% FBS
FABP3 = FABP3 (Homo sapiens (Human), UniProt P05413); experiment: FABP3 fluorescent probe displacement binding assay; conditions: average ± S.E. of at least three independent experiments
FABP7 = FABP7 (Homo sapiens (Human), UniProt O15540); experiment: FABP7 fluorescent probe displacement binding assay; conditions: average ± S.E. of at least three independent experiments
PC3 cells = experiment: MTT cytotoxicity and taxane combination (CI) analysis, PC3 (Example 6); format: cell-based, human; conditions: for CI value / Fa value / Relationship: PC3, 1y 7.5 μM or 1w 1.0 μM
[4] = MTT cytotoxicity, WI-38 (Example 6); format: cell-based; conditions: human, WI-38 cells (normal lung cell line), 72-hour incubation
[5] = MTT cytotoxicity, RWPE-1 (Example 6); format: cell-based; conditions: human, RWPE-1 cells (normal prostate cell line), 72-hour incubation
22Rv1 cells = experiment: MTT cytotoxicity and taxane combination (CI) analysis, 22Rv1 (Example 6); format: cell-based, human; conditions: for CI value / Fa value / Relationship: 1y 7.5 μM or 1w 1.0 μM
[6] = test system: PC3 cells implanted subcutaneously; experiment: Subcutaneous PC3 tumor growth in nude mice; format: in vivo, male BALB/c nude mice; conditions: ip
[7] = combination with cabazitaxel 0.03 nM
[8] = combination with cabazitaxel 0.3 nM
[9] = combination with cabazitaxel 3.0 nM
[10] = combination with docetaxel 0.03 nM
[11] = combination with docetaxel 0.3 nM
[12] = combination with docetaxel 3.0 nM
[13] = 22Rv1, combination with cabazitaxel 0.03 nM
[14] = 22Rv1, combination with cabazitaxel 0.3 nM
[15] = 22Rv1, combination with cabazitaxel 3.0 nM
[16] = 22Rv1, combination with docetaxel 0.03 nM
[17] = 22Rv1, combination with docetaxel 0.3 nM
[18] = 22Rv1, combination with docetaxel 3.0 nM

FABP5, sequence (Q01469 whole entry): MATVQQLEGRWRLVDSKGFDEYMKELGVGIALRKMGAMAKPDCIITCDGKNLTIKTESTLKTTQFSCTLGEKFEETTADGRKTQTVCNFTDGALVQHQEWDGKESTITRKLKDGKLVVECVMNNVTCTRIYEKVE
FABP7, sequence (O15540 whole entry): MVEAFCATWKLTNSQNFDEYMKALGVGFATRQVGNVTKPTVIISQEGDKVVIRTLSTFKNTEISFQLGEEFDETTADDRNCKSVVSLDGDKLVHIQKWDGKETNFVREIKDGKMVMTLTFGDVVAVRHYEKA
FABP3, sequence (P05413 whole entry): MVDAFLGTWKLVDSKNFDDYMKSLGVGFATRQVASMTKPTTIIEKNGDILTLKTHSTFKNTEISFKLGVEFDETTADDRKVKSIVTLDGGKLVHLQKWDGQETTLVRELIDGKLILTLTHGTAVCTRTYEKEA

SMILES: O=C1CCc2cc(-c3cccc(OC(=O)[C@@H]4C(c5ccccc5)[C@@H](C(=O)O)[C@H]4c4ccccc4)c3)ccc2N1 (mixture of isomers) [Compound 1h, (±)-α-2,4-diphenyl-3-[3-(2-oxo-1,2,3,4-tetrahydroquinolin-6-yl)phenoxycarbonyl]cyclobutane-1-carboxylic acid]
- IC50 [1]: 4.93 µM
- Ki (FABP5): 0.74 ± 0.06 µM
- FABP3 Ki/FABP5 Ki (FABP5): 10.9
- IC50 [2]: 24 µM
- IC50 [3]: 7.89 µM
- Ki (FABP3): 8.11 ± 1.67 µM
- Ki (FABP7): 0.7 ± 0.03 µM

SMILES: COc1ccccc1C1[C@@H](C(=O)O)[C@@H](c2ccccc2OC)[C@@H]1C(=O)Oc1cccc(-c2ccc3c(c2)OCCO3)c1 (mixture of isomers) [Compound 1m]
- IC50 [1]: 7.25 µM
- Ki (FABP5): 1.56 ± 0.19 µM
- FABP3 Ki/FABP5 Ki (FABP5): 1.8
- IC50 [2]: 49.5 µM
- IC50 [3]: 11.2 µM
- Ki (FABP3): 2.79 ± 0.85 µM
- Ki (FABP7): 2.25 ± 0.13 µM

SMILES: COc1ccccc1[C@@H]1C(C(=O)O)[C@@H](c2ccccc2OC)C1C(=O)Oc1ccccc1-c1ccc2c(c1)OCO2 (mixture of isomers) [Compound 1n, (±)-α-3-[2-(bnzo[d][1,3]dioxol-5-yl)phenoxycarbonyl]-2,4-di (2-methoxyphenyl)cyclobutane-1-carboxylic acid]
- IC50 [1]: 20.7 µM
- Ki (FABP5): 1.59 ± 0.11 µM
- FABP3 Ki/FABP5 Ki (FABP5): 0.8
- IC50 [2]: 59.4 µM
- IC50 [3]: 23.5 µM
- Ki (FABP3): 1.28 ± 0.28 µM
- Ki (FABP7): 0.26 ± 0.09 µM

SMILES: COc1ccccc1[C@H]1[C@H](C(=O)O)[C@H](c2ccccc2OC)[C@H]1C(=O)Oc1ccccc1-c1ccccc1 (racemic) [Compound 1o, (±)-α-3-(1,1′-biphenyl-2-yloxycarbonyl)-2,4-di (2-methoxyphenyl)cyclobutane-1-carboxylic acid]
- IC50 [1]: 8.69 µM
- Ki (FABP5): 1.59 ± 0.24 µM
- FABP3 Ki/FABP5 Ki (FABP5): 0.13
- IC50 [2]: > 100 µM
- IC50 [3]: 9.43 µM
- Ki (FABP3): 0.21 ± 0.09 µM
- Ki (FABP7): 1.36 ± 0.23 µM

SMILES: COc1ccccc1[C@H]1[C@H](C(=O)O)[C@H](c2ccccc2OC)[C@H]1C(=O)OCc1cccc2ccccc12 (racemic) [Compound 1q, (±)-α-2,4-bis(2-methoxyphenyl)-3-(naphthalen-1-ylmethoxycarbonyl)cyclobutane-1-carboxylic acid]
- IC50 [1]: 11.3 µM
- Ki (FABP5): 2.15 ± 0.17 µM
- FABP3 Ki/FABP5 Ki (FABP5): 24.5
- IC50 [2]: 20.3 µM
- IC50 [3]: 12.4 µM
- Ki (FABP3): 52.6 ± 8.62 µM
- Ki (FABP7): 8.04 ± 0.71 µM

SMILES: COc1ccccc1[C@H]1[C@H](C(=O)O)[C@H](c2ccccc2OC)[C@H]1C(=O)Oc1cccc2ccccc12 (racemic) [Compound 1y]
- IC50 (PC3 cells; Homo sapiens, PC-3, MTT, 72-hour incubation, single agent): 11.4 µM
- CI value (PC3 cells; [7]): 0.0001
- Fa value (PC3 cells; [7]): 0.998
- Relationship (PC3 cells; [7]): synergistic
- CI value (PC3 cells; [8]): 0.0001
- Fa value (PC3 cells; [8]): 0.999
- Relationship (PC3 cells; [8]): synergistic
- CI value (PC3 cells; [9]): 0.0001
- Fa value (PC3 cells; [9]): 0.999
- Relationship (PC3 cells; [9]): synergistic
- CI value (PC3 cells; [10]): 0.897
- Fa value (PC3 cells; [10]): 0.786
- Relationship (PC3 cells; [10]): synergistic
- CI value (PC3 cells; [11]): 0.009
- Fa value (PC3 cells; [11]): 0.950
- Relationship (PC3 cells; [11]): synergistic
- CI value (PC3 cells; [12]): 0.160
- Fa value (PC3 cells; [12]): 0.992
- Relationship (PC3 cells; [12]): synergistic
- cytotoxicity of combination with docetaxel or cabazitaxel versus each drug administered independently (PC3 cells; PC3 cells): greater cytotoxicity
- IC50 at 72 h [4]: 29.4 µM
- Ki (FABP3): 0.69 ± 0.17 µM
- IC50 at 72 h [5]: 26 µM
- CI value (22Rv1 cells; [13]): 0.707
- Fa value (22Rv1 cells; [13]): 0.777
- Relationship (22Rv1 cells; [13]): synergistic
- CI value (22Rv1 cells; [14]): 0.396
- Fa value (22Rv1 cells; [14]): 0.899
- Relationship (22Rv1 cells; [14]): synergistic
- CI value (22Rv1 cells; [15]): 0.003
- Fa value (22Rv1 cells; [15]): 0.998
- Relationship (22Rv1 cells; [15]): synergistic
- CI value (22Rv1 cells; [16]): 3.846
- Fa value (22Rv1 cells; [16]): 0.795
- CI value (22Rv1 cells; [17]): 0.003
- Fa value (22Rv1 cells; [17]): 0.904
- Relationship (22Rv1 cells; [17]): synergistic
- CI value (22Rv1 cells; [18]): 0.005
- Fa value (22Rv1 cells; [18]): 0.999
- Relationship (22Rv1 cells; [18]): synergistic
- cytotoxicity of combination with docetaxel or cabazitaxel versus each drug administered independently (22Rv1 cells; 22Rv1 cells): greater cytotoxicity
- IC50 (22Rv1 cells; Homo sapiens, 22Rv1, MTT, 72-hour incubation, single agent): 10.1 µM
- Ki (FABP7): 0.67 ± 0.04 µM
- tumor growth ([6]; 20 mg/kg, once daily, from day 15, versus vehicle): significantly reduced tumor growth

SMILES: COc1ccccc1[C@H]1[C@H](C(=O)O)[C@H](c2ccccc2OC)[C@@H]1C(=O)Oc1cccc(-c2cccc3c2OCCO3)c1 (racemic) [Compound 2c, (±)-γ-3-((3-(2,3-dihydrobenzo[b][1, 4]dioxin-5-yl)phenoxy)carbonyl)-2,4-di(2-methoxyphenyl)cyclobutane-1-carboxylic acid]
- IC50 [1]: 10.1 µM
- Ki (FABP5): 1.26 ± 0.12 µM
- FABP3 Ki/FABP5 Ki (FABP5): 5.4
- IC50 [2]: 52.1 µM
- IC50 [3]: 16.4 µM
- Ki (FABP3): 6.86 ± 0.07 µM
- Ki (FABP7): 1.78 ± 0.45 µM

SMILES: O=C(O)[C@@H]1C(c2ccccc2)[C@H](C(=O)OCc2ccccc2-c2ccccc2)[C@H]1c1ccccc1 (mixture of isomers) [Compound 3c, (±) -ε-3-(1,1′-biphenyl-2-ylmethoxycarbonyl)-2,4-diphenylcyclobutane-1-carboxylic acid]
- IC50 [1]: 15 µM
- Ki (FABP5): 1.65 ± 0.22 µM
- FABP3 Ki/FABP5 Ki (FABP5): 2.1
- IC50 [2]: 22.2 µM
- IC50 [3]: 13.8 µM
- Ki (FABP3): 3.4 ± 0.54 µM
- Ki (FABP7): 0.68 ± 0.16 µM

SMILES: O=C(O)[C@@H]1[C@@H](c2ccccc2)[C@H](C(=O)OCc2cccc3ccccc23)[C@H]1c1ccccc1 [Compound 3f, ε-2,4-diphenyl-3-(napthylen1-yl)methoxycarbonylcyclobutane-1-carboxylic acid]
- IC50 [1]: 0.95 µM
- Ki (FABP5): 5.08 ± 0.62 µM
- FABP3 Ki/FABP5 Ki (FABP5): 1.5
- IC50 [2]: 1.6 µM
- IC50 [3]: 1.26 µM
- Ki (FABP3): 7.42 ± 1.38 µM
- Ki (FABP7): 0.86 ± 0.04 µM

SMILES: CC(=O)O[C@@]12CO[C@@H]1C[C@H](O)[C@@]1(C)C(=O)[C@H](O)C3=C(C)[C@@H](OC(=O)[C@H](O)[C@@H](NC(=O)OC(C)(C)C)c4ccccc4)C[C@@](O)([C@@H](OC(=O)c4ccccc4)[C@H]21)C3(C)C [docetaxel, reference compound]
- tumor growth ([6]; 10 mg/kg, once weekly): near complete inhibition of growth
